Assay results reported in patent publication US6455577B2, “Flavanone derivatives and composition for preventing or treating blood lipid level-related diseases comprising same” (Korea Research Institute of Bioscience and Biotechnology, priority 2000, dated 2002).

What was measured:
HMG-CoA reductase = target: T1, HMG-CoA reductase (Rattus norvegicus, UniProt P51639); assay: HMG-CoA reductase activity in liver microsomes of fed rats; type: in vivo
T1 construct: microsomes were separated from liver tissues to be used as an enzyme source; from tissue; host or cells: liver microsomes of fed rats
T1 sequence (P51639 1-887): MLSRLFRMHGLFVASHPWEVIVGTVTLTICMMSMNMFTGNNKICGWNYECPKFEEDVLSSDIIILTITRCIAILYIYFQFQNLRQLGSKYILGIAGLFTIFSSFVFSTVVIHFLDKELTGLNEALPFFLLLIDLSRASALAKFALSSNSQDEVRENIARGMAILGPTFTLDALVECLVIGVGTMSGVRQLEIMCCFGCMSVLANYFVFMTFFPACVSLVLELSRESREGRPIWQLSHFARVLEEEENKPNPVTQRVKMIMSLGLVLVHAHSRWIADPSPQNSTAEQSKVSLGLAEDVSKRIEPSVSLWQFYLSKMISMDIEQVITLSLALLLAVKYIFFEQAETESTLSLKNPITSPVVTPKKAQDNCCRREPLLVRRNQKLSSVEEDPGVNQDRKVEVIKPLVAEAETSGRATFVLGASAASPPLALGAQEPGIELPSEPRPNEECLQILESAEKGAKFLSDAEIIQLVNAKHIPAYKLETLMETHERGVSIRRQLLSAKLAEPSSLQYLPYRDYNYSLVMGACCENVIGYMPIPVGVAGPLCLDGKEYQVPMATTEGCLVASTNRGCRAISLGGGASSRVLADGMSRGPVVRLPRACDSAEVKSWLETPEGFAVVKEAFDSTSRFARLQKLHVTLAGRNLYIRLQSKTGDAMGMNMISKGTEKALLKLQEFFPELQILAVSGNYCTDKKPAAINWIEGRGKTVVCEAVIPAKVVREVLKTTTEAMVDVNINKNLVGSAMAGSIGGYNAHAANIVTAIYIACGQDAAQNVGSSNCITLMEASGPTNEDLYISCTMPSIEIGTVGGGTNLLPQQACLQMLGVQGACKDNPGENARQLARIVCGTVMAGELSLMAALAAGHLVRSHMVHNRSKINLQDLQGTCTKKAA
Experimental: (§1) To determine the effect of feeding NG5006 to rats on the activities of ACAT and HMG-CoA reductase, microsomes were separated from liver tissues to be used as an enzyme source.
(§2) 1 g each of the livers taken from each group of rats of Example 12 was homogenized in 5 ml of homogenization medium(0. 1 M KH2PO4, pH 7.4, 0.1 mM EDTA and 10 mM β-mercaptoethanol). The homogenate was centrifuged at 3,000×g for 10 min. at 4° C. and the supernatant thus obtained was centrifuged at 15,000×g for 15 min. at 4° C. to obtain a supernatant. The supernatant was put into an ultracentrifuge tube(Beckman) and centrifuged at 100,000×g for 1 hour at 4° C. to obtain microsomal pellets, which were then suspended in 3 ml of the homogenization medium and centrifuged at 100,000×g for 1 hour at 4° C. The pellets thus obtained were suspended in 1 ml of the homogenization medium. The protein concentration of the resulting suspension was determined by Lowry's method and then adjusted to 4 to 8 mg/ml. The resulting suspension was stored in a deep freezer(Biofreezer, Forma Scientific Inc.).
The activity of HMG-CoA reductase was determined by employing [^14C]HMG-CoA, in accordance with the method of Shapiro et al.(Biochemica et Biophysica Acta, 370, 369-377(1974)) as follows.
The enzyme in the supernatant containing the microsome obtained in (Step 1) was activated at 37° C. for 30 min. Added to a reaction tube were 20 μl of HMG-CoA reductase assay buffer(0.25M KH2PO4(pH 7.0), 8.75 mM EDTA, 25 mM DTT, 0.45 M KCl and 0.25 mg/ml BSA), 5 μl of 50 mM NADPH, 5 μl of [^14C]HMG-CoA(0.05μ Ci/tube, final conc. 120μM), and 10 μl of activated microsomal enzyme(0.03-0.04 mg), and the mixture was incubated at 37° C. for 30 min. […] A region having a Rf value ranging from 0.65 to 0.75 was removed by scraping with a disposable cover slips and assayed for radioactivity with 1450 Microbeta liquid scintillation counter(Wallac Co., Finland). Enzyme activities were calculated as picomoles mevalonic acid synthesized per min. per mg protein(pmoles/min/mg protein).

ACAT = ACAT activity in liver microsomes of fed rats; type: in vivo, rat
Experimental: as §1, §2
6.67 μl of 1 mg/ml cholesterol solution in acetone was mixed with 6 μl of 10% Triton WR-1339(Sigma Co.) in acetone and then, acetone was removed from the mixture by evaporation under a nitrogen flow. Distilled water was added to the resulting mixture to adjust the concentration of cholesterol to […].
Added to 10 μl of the resulting aqueous cholesterol solution were 10 μl of 1 M KH2PO4(pH 7.4), 5 μl of 0.6 mM bovine serum albumin(BSA), 10 μl of microsome solution obtained in (Step 1) and 55 μl of distilled water(total 90 μl). The mixture was pre-incubated in a water bath at 37° C. for 30 min. […]
200 μl of the resulting supernatant was put in a scintillation bottle and 4 ml of scintillation fluid(Lumac Co.) was added thereto. The mixture was assayed for radioactivity with 1450 Microbeta liquid scintillation counter(Wallac Co., Finland). ACAT activity was calculated as picomoles of cholesteryl oleate synthesized per min. per mg protein(pmoles/min/mg protein).

[1] = liver microsomes of rats fed 1% cholesterol plus 0.02% naringenin or 0.036% NG5006, six weeks

What does the source list for CCCCCCCCCCCCCCCCOc1cc(O)c2c(c1)OC(c1ccc(O)cc1)CC2=O (stereo not shown) [NG5006, Naringenin 7-O-cetyl Ether]?
HMG-CoA activity lower than that of the control group (HMG-CoA reductase; NG5006-fed rat group): 27.5%; HMG-CoA reductase activity (HMG-CoA reductase; [1]): 81.6 ± 6.0 pmole/min/mg protein; ACAT activity lower than that of the control group (ACAT; NG5006-fed rat group): 14%; ACAT activity (ACAT; [1]): 149.7 ± 5.1 pmole/min/mg protein
